Experimental data taken from PubChem BioAssay (NCI).
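In this assay, cells in 96-well plates receive the compound at five concentrations for 48 hours. Endpoints are linearly interpolated between the surrounding concentrations. At the TGI there is no net growth.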

Legend:
Assay in all cases: inhibition of tumour cell growth, NCI panel, 48 h
786-0 renal = test system: 786-0 renal
A549 NSCLC = test system: A549 NSCLC
ACHN renal = test system: ACHN renal
BT-549 breast = test system: BT-549 breast
CAKI-1 renal = test system: CAKI-1 renal
CCRF-CEM leukemia = test system: CCRF-CEM leukemia
COLO 205 colon = test system: COLO 205 colon
DU-145 prostate = test system: DU-145 prostate
EKVX NSCLC = test system: EKVX NSCLC
HCT-116 colon = test system: HCT-116 colon
HCT-15 colon = test system: HCT-15 colon
HL-60(TB) leukemia = test system: HL-60(TB) leukemia
HOP-62 NSCLC = test system: HOP-62 NSCLC
HOP-92 NSCLC = test system: HOP-92 NSCLC
HS 578T breast = test system: HS 578T breast
HT29 colon = test system: HT29 colon
IGROV1 ovarian = test system: IGROV1 ovarian
K-562 leukemia = test system: K-562 leukemia
KM12 colon = test system: KM12 colon
LOX IMVI melanoma = test system: LOX IMVI melanoma
M14 melanoma = test system: M14 melanoma
MALME-3M melanoma = test system: MALME-3M melanoma
MDA-MB-231 breast = test system: MDA-MB-231 breast
MDA-MB-435 = test system: MDA-MB-435
MDA-N = test system: MDA-N
MOLT-4 leukemia = test system: MOLT-4 leukemia
NCI-H226 lung = test system: NCI-H226 lung
NCI-H23 lung = test system: NCI-H23 lung
NCI-H460 lung = test system: NCI-H460 lung
NCI-H522 lung = test system: NCI-H522 lung
NCI/ADR-RES ovarian = test system: NCI/ADR-RES ovarian
OVCAR-3 ovarian = test system: OVCAR-3 ovarian
OVCAR-4 ovarian = test system: OVCAR-4 ovarian
OVCAR-5 ovarian = test system: OVCAR-5 ovarian
OVCAR-8 ovarian = test system: OVCAR-8 ovarian
PC-3 prostate = test system: PC-3 prostate
RPMI-8226 leukemia = test system: RPMI-8226 leukemia
RXF 393 renal = test system: RXF 393 renal
SF-268 CNS = test system: SF-268 CNS
SF-295 CNS = test system: SF-295 CNS
SF-539 CNS = test system: SF-539 CNS
SK-MEL-2 melanoma = test system: SK-MEL-2 melanoma
SK-MEL-28 melanoma = test system: SK-MEL-28 melanoma
SK-MEL-5 melanoma = test system: SK-MEL-5 melanoma
SK-OV-3 ovarian = test system: SK-OV-3 ovarian
SN12C renal = test system: SN12C renal
SNB-19 CNS = test system: SNB-19 CNS
SNB-75 CNS = test system: SNB-75 CNS
SR leukemia = test system: SR leukemia
SW-620 colon = test system: SW-620 colon
T-47D breast = test system: T-47D breast
TK-10 renal = test system: TK-10 renal
U251 CNS = test system: U251 CNS
UACC-257 melanoma = test system: UACC-257 melanoma
UO-31 renal = test system: UO-31 renal
A498 renal = test system: A498 renal
HCC-2998 colon = test system: HCC-2998 colon
MCF7 breast = test system: MCF7 breast
UACC-62 melanoma = test system: UACC-62 melanoma

COc1ccc(-c2cc(-c3cc(F)c(Cl)cc3Cl)[nH]n2)cc1OC
TGI (786-0 renal): 42.4 µM
TGI (A549 NSCLC): > 100 µM
TGI (ACHN renal): 30.4 µM
TGI (BT-549 breast): > 100 µM
TGI (CAKI-1 renal): > 100 µM
TGI (CCRF-CEM leukemia): 75.9 µM
TGI (COLO 205 colon): 47 µM
TGI (DU-145 prostate): > 100 µM
TGI (EKVX NSCLC): > 100 µM
TGI (HCT-116 colon): 83.6 µM
TGI (HCT-15 colon): > 100 µM
TGI (HL-60(TB) leukemia): 55 µM
TGI (HOP-62 NSCLC): > 100 µM
TGI (HOP-92 NSCLC): 67.8 µM
TGI (HS 578T breast): > 100 µM
TGI (HT29 colon): 76.6 µM
TGI (IGROV1 ovarian): > 100 µM
TGI (K-562 leukemia): > 100 µM
TGI (KM12 colon): > 100 µM
TGI (LOX IMVI melanoma): 42.1 µM
TGI (M14 melanoma): > 100 µM
TGI (MALME-3M melanoma): > 100 µM
TGI (MDA-MB-231 breast): > 100 µM
TGI (MDA-MB-435): > 100 µM
TGI (MDA-N): > 100 µM
TGI (MOLT-4 leukemia): > 100 µM
TGI (NCI-H226 lung): 52.5 µM
TGI (NCI-H23 lung): > 100 µM
TGI (NCI-H460 lung): > 100 µM
TGI (NCI-H522 lung): 81.8 µM
TGI (NCI/ADR-RES ovarian): > 100 µM
TGI (OVCAR-3 ovarian): 41.3 µM
TGI (OVCAR-4 ovarian): > 100 µM
TGI (OVCAR-5 ovarian): > 100 µM
TGI (OVCAR-8 ovarian): > 100 µM
TGI (PC-3 prostate): 79.1 µM
TGI (RPMI-8226 leukemia): 41 µM
TGI (RXF 393 renal): 43.8 µM
TGI (SF-268 CNS): > 100 µM
TGI (SF-295 CNS): 73.7 µM
TGI (SF-539 CNS): 37.3 µM
TGI (SK-MEL-2 melanoma): > 100 µM
TGI (SK-MEL-28 melanoma): > 100 µM
TGI (SK-MEL-5 melanoma): 47.3 µM
TGI (SK-OV-3 ovarian): > 100 µM
TGI (SN12C renal): 62.9 µM
TGI (SNB-19 CNS): > 100 µM
TGI (SNB-75 CNS): 61.5 µM
TGI (SR leukemia): 43.8 µM
TGI (SW-620 colon): 74.2 µM
TGI (T-47D breast): > 100 µM
TGI (TK-10 renal): > 100 µM
TGI (U251 CNS): > 100 µM
TGI (UACC-257 melanoma): > 100 µM
TGI (UO-31 renal): > 100 µM

CN(C(=O)c1ccccc1)C1CCCC(=O)CC1 (stereo unspecified)
TGI (786-0 renal): > 100 µM
TGI (A498 renal): > 100 µM
TGI (A549 NSCLC): > 100 µM
TGI (ACHN renal): > 100 µM
TGI (BT-549 breast): > 100 µM
TGI (CAKI-1 renal): > 100 µM
TGI (CCRF-CEM leukemia): > 100 µM
TGI (COLO 205 colon): > 100 µM
TGI (DU-145 prostate): > 100 µM
TGI (EKVX NSCLC): > 100 µM
TGI (HCC-2998 colon): > 100 µM
TGI (HCT-116 colon): > 100 µM
TGI (HCT-15 colon): > 100 µM
TGI (HL-60(TB) leukemia): > 100 µM
TGI (HOP-62 NSCLC): > 100 µM
TGI (HOP-92 NSCLC): > 100 µM
TGI (HS 578T breast): > 100 µM
TGI (HT29 colon): > 100 µM
TGI (IGROV1 ovarian): > 100 µM
TGI (K-562 leukemia): > 100 µM
TGI (KM12 colon): > 100 µM
TGI (LOX IMVI melanoma): > 100 µM
TGI (M14 melanoma): > 100 µM
TGI (MALME-3M melanoma): > 100 µM
TGI (MCF7 breast): > 100 µM
TGI (MDA-MB-231 breast): > 100 µM
TGI (MDA-MB-435): > 100 µM
TGI (MDA-N): > 100 µM
TGI (NCI-H226 lung): > 100 µM
TGI (NCI-H23 lung): > 100 µM
TGI (NCI-H460 lung): > 100 µM
TGI (NCI-H522 lung): > 100 µM
TGI (OVCAR-3 ovarian): > 100 µM
TGI (OVCAR-4 ovarian): > 100 µM
TGI (OVCAR-5 ovarian): > 100 µM
TGI (OVCAR-8 ovarian): > 100 µM
TGI (PC-3 prostate): > 100 µM
TGI (RPMI-8226 leukemia): > 100 µM
TGI (RXF 393 renal): > 100 µM
TGI (SF-268 CNS): > 100 µM
TGI (SF-295 CNS): > 100 µM
TGI (SF-539 CNS): > 100 µM
TGI (SK-MEL-2 melanoma): > 100 µM
TGI (SK-MEL-28 melanoma): > 100 µM
TGI (SK-OV-3 ovarian): > 100 µM
TGI (SN12C renal): > 100 µM
TGI (SNB-19 CNS): > 100 µM
TGI (SNB-75 CNS): > 100 µM
TGI (SR leukemia): > 100 µM
TGI (SW-620 colon): > 100 µM
TGI (T-47D breast): > 100 µM
TGI (TK-10 renal): > 100 µM
TGI (U251 CNS): > 100 µM
TGI (UACC-257 melanoma): > 100 µM
TGI (UACC-62 melanoma): > 100 µM
TGI (UO-31 renal): > 100 µM
